# Results as given in ChEMBL document CHEMBL1201862, “PubChem BioAssay data set” (2004).
#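 96-well plates; 48 h exposure; 5 concentrations. Endpoints by linear interpolation between flanking doses. Not reached: highest tested concentration assigned. At the GI50, growth is halved.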 Active and inactive are the calls of the source. Rule as the data show it: active = GI50 up to about 1.1 µM and inactive = higher.
# How the values were obtained:
# Experiment in all cases: inhibition of tumour cell growth, NCI panel, 48 h
# RPMI-8226 = system: RPMI-8226
# MCF7 = system: MCF7
# UACC-62 = system: UACC-62
# NCI-H522 = system: NCI-H522
# SNB-75 = system: SNB-75
# 786-0 = system: 786-0
# SK-MEL-5 = system: SK-MEL-5
# HCT-116 = system: HCT-116
# M14 = system: M14
# MOLT-4 = system: MOLT-4
# UO-31 = system: UO-31
# SK-OV-3 = system: SK-OV-3
# COLO 205 = system: COLO 205
# NCI/ADR-RES = system: NCI/ADR-RES
# ACHN = system: ACHN
# OVCAR-5 = system: OVCAR-5
# HCT-15 = system: HCT-15
# OVCAR-4 = system: OVCAR-4
# OVCAR-3 = system: OVCAR-3
# Malme-3M = system: Malme-3M
# MDA-N = system: MDA-N
# U-251 = system: U-251
# DU-145 = system: DU-145
# EKVX = system: EKVX
# CAKI-1 = system: CAKI-1
# NCI-H23 = system: NCI-H23
# HOP-92 = system: HOP-92
# T47D = system: T47D
# A498 = system: A498
# HT-29 = system: HT-29
# HL-60 = system: HL-60
# SN12C = system: SN12C
# UACC-257 = system: UACC-257
# SK-MEL-28 = system: SK-MEL-28
# Hs-578T = system: Hs-578T
# NCI-H226 = system: NCI-H226
# HCC 2998 = system: HCC 2998
# K562 = system: K562
# LOX IMVI = system: LOX IMVI
# KM12 = system: KM12
# A549 = system: A549
# SF-539 = system: SF-539
# SF-268 = system: SF-268
# IGROV-1 = system: IGROV-1
# BT-549 = system: BT-549
# PC-3 = system: PC-3
# TK-10 = system: TK-10
# CCRF-CEM = system: CCRF-CEM
# NCI-H460 = system: NCI-H460
# MDA-MB-231 = system: MDA-MB-231
# SF-295 = system: SF-295
# SW-620 = system: SW-620
# SNB-19 = system: SNB-19
# OVCAR-8 = system: OVCAR-8
# SK-MEL-2 = system: SK-MEL-2
# MDA-MB-435 = system: MDA-MB-435
# SR = system: SR
# HOP-62 = system: HOP-62
# RXF 393 = system: RXF 393
compound,measurement,setting,value
CC1(C)CC2=C(Sc3ccccc3N2)C(=O)C1C(=O)C(=O)Nc1cccc([N+](=O)[O-])c1 (configuration not stated),GI50,RPMI-8226,64.6 µM (inactive)
same,GI50,MCF7,> 100 µM (inactive)
same,GI50,UACC-62,98.2 µM (inactive)
same,GI50,NCI-H522,> 100 µM (inactive)
same,GI50,SNB-75,> 100 µM (inactive)
same,GI50,786-0,> 100 µM (inactive)
same,GI50,SK-MEL-5,> 100 µM (inactive)
same,GI50,HCT-116,> 100 µM (inactive)
same,GI50,M14,> 100 µM (inactive)
same,GI50,MOLT-4,33 µM (inactive)
same,GI50,UO-31,> 100 µM (inactive)
same,GI50,SK-OV-3,> 100 µM (inactive)
same,GI50,COLO 205,> 100 µM (inactive)
same,GI50,NCI/ADR-RES,> 100 µM (inactive)
same,GI50,ACHN,> 100 µM (inactive)
same,GI50,OVCAR-5,> 100 µM (inactive)
same,GI50,HCT-15,> 100 µM
same,GI50,OVCAR-4,82.4 µM (inactive)
same,GI50,OVCAR-3,85.5 µM (inactive)
same,GI50,Malme-3M,> 100 µM (inactive)
same,GI50,MDA-N,> 100 µM (inactive)
same,GI50,U-251,> 100 µM (inactive)
same,GI50,DU-145,> 100 µM (inactive)
same,GI50,EKVX,> 100 µM (inactive)
same,GI50,CAKI-1,> 100 µM (inactive)
same,GI50,NCI-H23,> 100 µM (inactive)
same,GI50,HOP-92,> 100 µM (inactive)
same,GI50,T47D,> 100 µM (inactive)
same,GI50,A498,> 100 µM (inactive)
same,GI50,HT-29,> 100 µM (inactive)
same,GI50,HL-60,> 100 µM (inactive)
same,GI50,SN12C,> 100 µM (inactive)
same,GI50,UACC-257,> 100 µM (inactive)
same,GI50,SK-MEL-28,> 100 µM (inactive)
same,GI50,Hs-578T,> 100 µM (inactive)
same,GI50,NCI-H226,> 100 µM (inactive)
same,GI50,HCC 2998,> 100 µM (inactive)
same,GI50,K562,66.8 µM (inactive)
same,GI50,LOX IMVI,> 100 µM (inactive)
same,GI50,KM12,44 µM (inactive)
same,GI50,A549,> 100 µM (inactive)
same,GI50,SF-539,> 100 µM (inactive)
same,GI50,SF-268,> 100 µM (inactive)
same,GI50,IGROV-1,> 100 µM (inactive)
same,GI50,BT-549,> 100 µM (inactive)
same,GI50,PC-3,75.9 µM (inactive)
same,GI50,TK-10,> 100 µM (inactive)
same,GI50,CCRF-CEM,0.0738 µM (active)
same,GI50,NCI-H460,> 100 µM (inactive)
same,GI50,MDA-MB-231,99.3 µM (inactive)
same,GI50,SF-295,> 100 µM (inactive)
same,GI50,SW-620,> 100 µM (inactive)
same,GI50,SNB-19,> 100 µM (inactive)
same,GI50,OVCAR-8,> 100 µM (inactive)
same,GI50,SK-MEL-2,> 100 µM (inactive)
same,GI50,MDA-MB-435,> 100 µM (inactive)
O=C1CCSSCCC(=O)NCCN1,GI50,SR,91.2 µM (inactive)
same,GI50,RPMI-8226,> 100 µM (inactive)
same,GI50,HOP-62,> 100 µM (inactive)
same,GI50,UACC-62,> 100 µM (inactive)
same,GI50,NCI-H522,> 100 µM (inactive)
same,GI50,786-0,> 100 µM (inactive)
same,GI50,SK-MEL-5,> 100 µM (inactive)
same,GI50,HCT-116,> 100 µM (inactive)
same,GI50,RXF 393,> 100 µM (inactive)
same,GI50,M14,> 100 µM (inactive)
same,GI50,MOLT-4,> 100 µM (inactive)
same,GI50,UO-31,> 100 µM (inactive)
same,GI50,SK-OV-3,> 100 µM (inactive)
same,GI50,COLO 205,> 100 µM (inactive)
same,GI50,NCI/ADR-RES,> 100 µM (inactive)
same,GI50,ACHN,> 100 µM (inactive)
same,GI50,OVCAR-5,> 100 µM (inactive)
same,GI50,HCT-15,> 100 µM
same,GI50,OVCAR-4,> 100 µM (inactive)
same,GI50,OVCAR-3,> 100 µM (inactive)
same,GI50,Malme-3M,> 100 µM (inactive)
same,GI50,MDA-N,> 100 µM (inactive)
same,GI50,U-251,> 100 µM (inactive)
same,GI50,DU-145,> 100 µM (inactive)
same,GI50,EKVX,> 100 µM (inactive)
same,GI50,CAKI-1,> 100 µM (inactive)
same,GI50,NCI-H23,> 100 µM (inactive)
same,GI50,HOP-92,> 100 µM (inactive)
same,GI50,T47D,> 100 µM (inactive)
same,GI50,A498,> 100 µM (inactive)
same,GI50,HT-29,> 100 µM (inactive)
same,GI50,HL-60,> 100 µM (inactive)
same,GI50,SN12C,> 100 µM (inactive)
same,GI50,UACC-257,> 100 µM (inactive)
same,GI50,SK-MEL-28,> 100 µM (inactive)
same,GI50,Hs-578T,> 100 µM (inactive)
same,GI50,NCI-H226,> 100 µM (inactive)
same,GI50,K562,> 100 µM (inactive)
same,GI50,LOX IMVI,> 100 µM (inactive)
same,GI50,KM12,> 100 µM (inactive)
same,GI50,A549,> 100 µM (inactive)
same,GI50,SF-539,> 100 µM (inactive)
same,GI50,SF-268,> 100 µM (inactive)
same,GI50,IGROV-1,> 100 µM (inactive)
same,GI50,BT-549,> 100 µM (inactive)
same,GI50,PC-3,> 100 µM (inactive)
same,GI50,TK-10,> 100 µM (inactive)
same,GI50,CCRF-CEM,> 100 µM (inactive)
same,GI50,NCI-H460,> 100 µM (inactive)
same,GI50,MDA-MB-231,> 100 µM (inactive)
same,GI50,SF-295,> 100 µM (inactive)
same,GI50,SW-620,> 100 µM (inactive)
same,GI50,SNB-19,> 100 µM (inactive)
same,GI50,OVCAR-8,> 100 µM (inactive)
same,GI50,SK-MEL-2,> 100 µM (inactive)
same,GI50,MDA-MB-435,> 100 µM (inactive)
